Reference: BindingDB's records for doi:10.1021/acs.jmedchem.9b02101 (Kyorin Pharmaceutical, 2020)
pEC50, pIC50: −log10 of the molar value.

Key:
[1] = Agonist activity at FPR2 in mouse peritoneal macrophages assessed as stimulation of phagocytosis preincubated for 15 mins followed by FITC labeled zymosan addition and measured after 45 mins by Trypan blue staining based fluorescence assay
[2] = Agonist activity at FPR2 in human HL-60 cells assessed as reduction in chemoattractant induced chemotaxis by luminescence cell viability assay

pEC50 [1]: > 9.00
Compound: COc1cc(F)c([C@@H]2CNC(=O)[C@H]2NC(=O)Nc2ccccc2)c(F)c1
pIC50 [2]: 7.24
